EPA's ToxValDB 9.5 (doi:10.2903/j.efsa.2009.262r)
Values after ≈ are worked out from the molar mass of the structure shown.

Experiments:
Apis mellifera = settings: acute, mortality
Bibionidae = settings: chronic/long-term; duration: 28 days
Daphnia magna = settings: chronic/long-term; duration: 21 days
Oryctolagus sp. = settings: reproduction developmental; reproduction
Rattus norvegicus = settings: for NOAEL: clinical chemistry
Aphidius rhopalosiphi = experiment: LR50; higher = less toxic; settings: not reported; mortality
Typhlodromus pyri = experiment: LR50; higher = less toxic; settings: not reported; mortality

## CCOP(=O)(SC(C)CC)SC(C)CC (configuration not stated) [Cadusafos]
Apis mellifera; dermal
  LD50: 1.8 µg/piece
Apis mellifera; oral, unspecified
  LD50: 2.07 µg/piece
Bibionidae
  NOEC: 32 µg/kg
Colinus virginianus; acute, oral, diet, mortality
  LC50: 10.8 mg/kg-day
Colinus virginianus; acute, oral, mortality
  LD50: 16.1 mg/kg-day
Colinus virginianus; reproduction developmental
  NOEL: ≥ 1.1 mg/kg-day
Daphnia magna
  NOEC: 0.231 µg/L
Oncorhynchus mykiss; acute, duration: 96 hours, mortality
  LC50: 0.13 µg/mL (≈ 0.481 µM)
Oncorhynchus mykiss; chronic/long-term, duration: 95 days
  NOEC: 5.22 µg/L
Oryctolagus sp.
  NOAEL: 0.3 mg/kg-day
Rattus norvegicus; acute, oral, mortality
  LD50: 37.1 mg/kg
Rattus norvegicus; chronic, duration: 2 years, F
  NOAEL: 0.045 mg/kg-day
Rattus norvegicus; subchronic, duration: 90 days, oral
  NOAEL: 0.067 mg/kg-day
Tagia sp.; acute, mortality
  LC50: 7.2 mg/kg
Tagia sp.; chronic/long-term
  NOEC: 1.8 mg/kg
Aphidius rhopalosiphi
  LR50: 3.75 g/ha
Typhlodromus pyri
  LR50: 44.4 g/ha
